SMILES strings stand for the structures.

The first experiment concerns human CD34+ cells. In words: Expansion of human CD34+ cells (EC50, CD34+CD45RA- cell count). The note with it: Homo sapiens, concentration that results in a 50% increase in CD34+CD45RA- cell count compared to vehicle cultures (DMSO); read-out: Biological data (EC50)*. It counts as cell-based.
In the case of `COC(=O)c1ccc2c(c1)[nH]c1ncnc(NCCCN3CCCCC3C)c12` (centres unmarked) [Cmpd 14], the EC50 was in the range of 100 to 250 nM.
Still for that read-out and setting: next, `COC(=O)c1ccc2c(c1)[nH]c1ncnc(NC3CCNCC3)c12` [Cmpd 17]: 500 to 1000 nM; `COC(=O)c1cnc2c(c1)[nH]c1nc(Cc3ccccc3C)nc(NCCCN3CCCC3)c12` [Cmpd 67]: 250 to 500 nM.
The same measure, in the same setting: in the case of `COC(=O)c1ccc2c(c1)[nH]c1nc(Cc3ccccc3)nc(NCC(O)CN3CCCCC3)c12` (centres unmarked) [Cmpd 51] it was less than 100 nM; in that of `COC(=O)c1ccc2c(c1)[nH]c1cc(Cc3ccccc3)nc(NCCCN3CCCCC3)c12` [Cmpd 77], less than 100 nM.
Still for that read-out and setting: next, `N#Cc1ccc2c(c1)[nH]c1nc(Cc3ccccc3)nc(NCCCN3CCCCC3)c12` [Cmpd 43]: 250 to 500 nM; `Cn1nnc(-c2cnc3c(c2)[nH]c2nc(Cc4ccccc4)nc(N[C@H]4CC[C@H](N)CC4)c23)n1` [Cmpd 69]: 250 to 500 nM.
With `CCN(CC)CCNc1nc(Cc2cccc(OC)c2)nc2[nH]c3cc(C(=O)OC)cnc3c12` [Cmpd 64], the EC50 was in the range of 500 to 1000 nM.
Turning to `COC(=O)c1cnc2c(c1)[nH]c1nc(Cc3cccc(F)c3)nc(NCCCN(C)CCCN)c12` [Cmpd 71], the EC50 lay within 250 to 500 nM.
In the case of `COC(=O)c1cnc2c(c1)[nH]c1nc(Cc3cccc(F)c3)nc(NCCCN3CCCCC3)c12` [Cmpd 70], the EC50 was more than 1000 nM.
In the case of `COC(=O)c1ccc2c(c1)[nH]c1cc(Cc3ccsc3)nc(NCCN(C)CCNC(=O)OC(C)(C)C)c12` [Cmpd 83], the EC50 was more than 1000 nM.
Regarding `COC(=O)c1ccc2c(c1)[nH]c1nc(Cc3cccc(Br)c3)nc(NCCCN3CCCCC3)c12` [Cmpd 35], the EC50 was less than 100 nM.
Take `COC(=O)c1ccc2c(c1)[nH]c1cc(Cc3ccsc3)nc(NCCCN3CCCCC3)c12` [Cmpd 85]: the EC50 fell in the range of 100 to 250 nM.
For `COC(=O)c1ccc2c(c1)[nH]c1ncnc(NCCCCN(C)C)c12` [Cmpd 10], the EC50 was 250 to 500 nM.
As to `COC(=O)c1ccc2c(c1)[nH]c1nc(Cc3cccc(C4(C(F)(F)F)N=N4)c3)nc(NCCCN3CCCCC3)c12` [Cmpd 32], the EC50 is less than 100 nM.
With `Cn1nnc(-c2ccc3c(c2)[nH]c2nc(Cc4ccccc4)nc(NCCCN4CCCCC4)c23)n1` [Cmpd 41], the EC50 was less than 100 nM.
Take `COC(=O)c1ccc2c(c1)[nH]c1cc(Cc3cccc(O)c3)nc(NCCCCN3CCCC3)c12` [Cmpd 82]: the EC50 was less than 100 nM.
Regarding `COC(=O)c1ccc2c(c1)[nH]c1nc(Cc3cccc(C(=O)C(F)(F)F)c3)nc(NCCCN3CCCCC3)c12` [Cmpd 39], the EC50 is less than 100 nM.
For `COC(=O)c1ccc2c(c1)[nH]c1ncnc(NCCCN(C)C)c12` [Cmpd 12], the EC50 was in the range of 500 to 1000 nM.
For `COC(=O)c1ccc2c(c1)[nH]c1ncnc(N3CCC(N4CCCCC4)CC3)c12` [Cmpd 20], the EC50 was 100 to 250 nM.
As to `COC(=O)c1ccc2c(c1)[nH]c1cc(Cc3cccnc3)nc(N3CCC(N4CCCC4)CC3)c12` [Cmpd 86], the EC50 was more than 1000 nM.
Still for that read-out and setting: in the case of `COC(=O)c1ccc2c(c1)[nH]c1ccnc(NCCCN3CCCCC3)c12` [Cmpd 76] it was more than 1000 nM; in that of `CNCCCN(C)c1nc(Cc2cccnc2)cc2[nH]c3cc(C(=O)OC)ccc3c12` [Cmpd 87], more than 1000 nM.
On the same count and under the same terms, next, `COC(=O)c1ccc2c(c1)[nH]c1cc(Cc3ccsc3)nc(NCCN(C)CCN)c12` [Cmpd 89]: 250 to 500 nM; `COC(=O)c1ccc2c(c1)[nH]c1ncnc(NCCN3CCCCC3)c12` [Cmpd 13]: 250 to 500 nM; `COC(=O)c1ccc2c(c1)[nH]c1nc(Cc3cnccn3)nc(NCCCN3CCCCC3)c12` [Cmpd 24]: 500 to 1000 nM.
Regarding `CCN(CC)CCN(CC)c1nc(Cc2ccccc2)nc2[nH]c3cc(C(=O)OC)cnc3c12` [Cmpd 75], the EC50 lay within 250 to 500 nM.
The same measure, in the same setting: in the case of `COC(=O)c1ccc2c(c1)[nH]c1nc(Cc3ccccc3)nc(NCCCN(C)CCCN)c12` [Cmpd 50] it was less than 100 nM.
Turning to `COC(=O)c1ccc2c(c1)[nH]c1nc(Cc3ccncc3)nc(NCCCN3CCCCC3)c12` [Cmpd 23], the EC50 was 250 to 500 nM.
Same read-out and setting: next, `COC(=O)c1ccc2c(c1)[nH]c1cc(Cc3cccnc3)nc(NCCCN3CCOCC3)c12` [Cmpd 84]: 500 to 1000 nM; `CNC(=O)c1ccc2c(c1)[nH]c1nc(Cc3ccccc3)nc(NCCCN3CCCCC3)c12` [Cmpd 59]: more than 1000 nM.
On the same count and under the same terms, in the case of `COC(=O)c1ccc2c(c1)[nH]c1nc(Cc3ccccc3)nc(NCCCN(C)CCOCCOCCO)c12` [Cmpd 49] it was less than 100 nM; in that of `COC(=O)c1cnc2c(c1)[nH]c1nc(Cc3cccc(OC)c3)nc(NCCCN3CCCCC3C)c12` (centres unmarked) [Cmpd 63], 250 to 500 nM.
`CCN(CCCN1CCCCC1)c1nc(Cc2ccccc2)nc2[nH]c3cc(C(=O)OC)ccc3c12` [Cmpd 53]: the EC50 is more than 1000 nM.
On to `COC(=O)c1ccc2c(c1)[nH]c1ncnc(NCC(O)CN3CCCCC3)c12` (centres unmarked) [Cmpd 16], for which the EC50 was 250 to 500 nM.
Take `COC(=O)c1ccc2c(c1)[nH]c1ncnc(NCCCN3CCCCC3)c12` [Cmpd 2]: the EC50 lay in the range of 250 to 500 nM.
On the same count and under the same terms, next, `COC(=O)c1ccc2c(c1)[nH]c1nc(Cc3ccc(C)cc3)nc(NCCCN3CCCCC3)c12` [Cmpd 37]: less than 100 nM.
Same read-out and setting: next, `COC(=O)c1ccc2c(c1)[nH]c1ncnc(NCCN(C)C)c12` [Cmpd 11]: 100 to 250 nM.
On the same count and under the same terms, next, `COC(=O)c1ccc2c(c1)[nH]c1ncnc(NCCCN)c12` [Cmpd 15]: 250 to 500 nM; `COC(=O)c1ccc2c(c1)[nH]c1nc(Cc3ccccc3)nc(NCCCN(C)CCCNC(=O)CCCC[C@@H]3SC[C@@H]4NC(=O)N[C@@H]43)c12` [Cmpd 56]: 250 to 500 nM; `COC(=O)c1cnc2c(c1)[nH]c1nc(Cc3ccccc3)nc(N(C)CCCN3CCCCC3)c12` [Cmpd 65]: less than 100 nM.
`COC(=O)c1cnc2c(c1)[nH]c1nc(Cc3ccccc3)nc(NCCCN3CCCCC3)c12` [Cmpd 60]: the EC50 lay in the range of 250 to 500 nM.
Consider `COC(=O)c1cnc2c(c1)[nH]c1nc(Cc3ccccc3)nc(N3CCC(N(C)C)CC3)c12` [Cmpd 74], for which the EC50 was 100 to 250 nM.
On to `COC(=O)c1ccc2c(c1)[nH]c1nc(Cc3ccc4ccccc4c3)nc(NCCCN3CCCCC3)c12` [Cmpd 27], for which the EC50 was in the range of 100 to 250 nM.
Still for that read-out and setting: in the case of `COC(=O)c1cnc2c(c1)[nH]c1nc(Cc3ccccc3)nc(NCC(C)CN(C)C)c12` (centres unmarked) [Cmpd 73] it was 500 to 1000 nM.
On the same count and under the same terms, next, `COC(=O)c1cnc2c(c1)[nH]c1nc(Cc3ccccc3C)nc(NCCCN3CCCCC3)c12` [Cmpd 66]: 250 to 500 nM; `COC(=O)c1ccc2c(c1)[nH]c1cc(Cc3ccccc3)nc(NCCN3CCCC3)c12` [Cmpd 78]: less than 100 nM; `COC(=O)c1ccc2c(c1)[nH]c1nc(Cc3cc(Br)cc(I)c3)nc(NCCCN3CCCCC3)c12` [Cmpd 26]: less than 100 nM.
On the same count and under the same terms, next, `CN(C)C1CCC(Nc2nc(Cc3ccccc3)nc3[nH]c4cc(-c5nnn(C)n5)ccc4c23)CC1` (centres unmarked) [Cmpd 46]: less than 100 nM; `COC(=O)c1ccc2c(c1)[nH]c1ncnc(NCCCN3CCCC3)c12` [Cmpd 9]: 100 to 250 nM.
As for `CNCCCNc1nc(Cc2cccc(F)c2)nc2[nH]c3cc(C(=O)OC)cnc3c12` [Cmpd 72], the EC50 is more than 1000 nM.
Still for that read-out and setting: in the case of `COC(=O)c1ccc2c(c1)[nH]c1nc(Cc3ccsc3)nc(NCCCN3CCCCC3)c12` [Cmpd 25] it was less than 100 nM.
Still for that read-out and setting: next, `COC(=O)c1ccc2c(c1)[nH]c1nc(C)nc(NCCCN3CCCCC3)c12` [Cmpd 58]: more than 1000 nM.
For the compound `COC(=O)c1ccc2c(c1)[nH]c1nc(C(C)c3ccccc3)nc(NCCCN3CCCCC3)c12` (centres unmarked) [Cmpd 31], the EC50 is less than 100 nM.
For `COC(=O)c1ccc2c(c1)[nH]c1nc(Cc3cccnc3)nc(NCCCN3CCCCC3)c12` [Cmpd 22], the EC50 was less than 100 nM.
The same measure, in the same setting: in the case of `COC(=O)c1cnc2c(c1)[nH]c1nc(Cc3ccsc3)nc(NCCCN3CCCCC3)c12` [Cmpd 61] it was 250 to 500 nM; in that of `COC(=O)c1cnc2c(c1)[nH]c1nc(Cc3ccsc3)nc(SCCCN3CCCCC3)c12` [Cmpd 62], 500 to 1000 nM; in that of `COC(=O)c1ccc2c(c1)[nH]c1ncnc(NCCC3CCNCC3)c12` [Cmpd 18], 250 to 500 nM.
As to `COC(=O)c1ccc2c(c1)[nH]c1cc(Cc3ccccc3)nc(N(C)CCCN(C)C)c12` [Cmpd 79], the EC50 was less than 100 nM.
For the compound `CNCCCNc1nc(Cc2ccccc2C)nc2[nH]c3cc(C(=O)OC)cnc3c12` [Cmpd 68], the EC50 was 500 to 1000 nM.
On to `C#CCOC(CNc1nc(Cc2ccccc2)nc2[nH]c3cc(C(=O)OC)ccc3c12)CN1CCCCC1` (centres unmarked) [Cmpd 52], for which the EC50 is less than 100 nM.
Still for that read-out and setting: in the case of `COC(=O)c1ccc2c(c1)[nH]c1ncnc(NCCCN3CCOCC3)c12` [Cmpd 19] it was more than 1000 nM.

The experiment is the same for the next values; noted with them: concentration that results in a 50% increase in CD34+CD45RA- cell count compared to vehicle cultures (DMSO).
Take `COC(=O)c1ccc2c(c1)[nH]c1nc(Cc3cccc(C4(C(F)(F)F)N=N4)c3)nc(NCCCN(C)CCCNC(=O)CCCCC3SCC4NC(=O)NC43)c12` (centres unmarked) [Cmpd 57]: the “Biological data (EC50)*” value was “F (F = compound showed >1.3 fold expansion)”.
The same measure, in the same setting: next, `C#CCNCCCN(C)CCCNc1nc(Cc2ccccc2)nc2[nH]c3cc(C(=O)OC)ccc3c12` [Cmpd 54]: “F (F = compound showed >1.3 fold expansion)”.
Same read-out and setting: in the case of `CCOC(=O)c1ccc2c(c1)[nH]c1nc(Cc3ccccc3)nc(NCCCN3CCCCC3)c12` [Cmpd 33] it was “F (F = compound showed >1.3 fold expansion)”; in that of `COC(=O)c1ccc2c(c1)[nH]c1nc(C(O)c3ccccc3)nc(NCCCN3CCCCC3)c12` (centres unmarked) [Cmpd 29], “F (F = compound showed >1.3 fold expansion)”; in that of `Cc1noc(-c2ccc3c(c2)[nH]c2nc(Cc4ccccc4)nc(NCCCN4CCCCC4)c23)n1.Cl` [Cmpd 42], “F (F = compound showed >1.3 fold expansion)”.
On the same count and under the same terms, next, `COC(=O)c1ccc2c(c1)[nH]c1nc(C(=O)c3ccccc3)nc(NCCCN3CCCCC3)c12` [Cmpd 30]: “F (F = compound showed >1.3 fold expansion)”; `COC(=O)c1ccc2c(c1)[nH]c1nc(Cc3ccccc3)nc(CCCCN3CCCCC3)c12` [Cmpd 48]: “F (F = compound showed >1.3 fold expansion)”.

The experiment is the same for the next values; noted with them: concentration that results in a 50% increase in CD34+CD45RA- cell count compared to vehicle cultures (DMSO); read-out: Biological data (EC50)*.
Take `COC(=O)c1ccc2c(c1)[nH]c1ncnc(NC3CCC(N)CC3)c12` (centres unmarked) [Cmpd 45]: the EC50 is 250 to 500 nM.
The same measure, in the same setting: in the case of `COC(=O)c1ccc2c(c1)[nH]c1ncnc(NC3CCC(N)CC3)c12` (centres unmarked) [Cmpd 44] it was 100 to 250 nM.

The values are drawn from patent US10273503B2, “Compounds and methods for enhancing viral gene transfer to human hematopoietic cells” (UNIVERSTÉ DE MONTRÉAL, priority 2015, dated 2019).
